Calls of active or inactive are those of the source.
Experiments:
Type in all cases: functional, cell-based
[1] = system: MCF7; assay: Induction of apoptosis in human MCF7 cells at IC50 concentration incubated for 48 hrs by Annexin V-FITC/PI staining based flow cytometry
[2] = system: HCT-116; assay: Induction of apoptosis in human HCT-116 cells at IC50 concentration incubated for 48 hrs by Annexin V-FITC/PI staining based flow cytometry
[3] = system: LoVo; assay: Induction of apoptosis in human LoVo cells at IC50 concentration incubated for 48 hrs by Annexin V-FITC/PI staining based flow cytometry
[4] = system: HepG2; assay: Induction of late apoptosis in human HepG2 cells at IC50 concentration incubated for 48 hrs by Annexin V-FITC/PI staining based flow cytometry
[5] = system: HCT-116; assay: Induction of necrosis in human HCT-116 cells at IC50 concentration incubated for 48 hrs by Annexin V-FITC/PI staining based flow cytometry
[6] = system: LoVo; assay: Induction of necrosis in human LoVo cells at IC50 concentration incubated for 48 hrs by Annexin V-FITC/PI staining based flow cytometry
[7] = system: MCF7; assay: Induction of necrosis in human MCF7 cells at IC50 concentration incubated for 48 hrs by Annexin V-FITC/PI staining based flow cytometry
[8] = system: HepG2; assay: Induction of necrosis in human HepG2 cells at IC50 concentration incubated for 48 hrs by Annexin V-FITC/PI staining based flow cytometry
[9] = system: HCT-116; assay: Induction of cell cycle arrest in human HCT-116 cells assessed as accumulation of cells at G0/G1 phase incubated for 48 hrs by flow cytometry
[10] = system: LoVo; assay: Induction of cell cycle arrest in human LoVo cells assessed as accumulation of cells at G0/G1 phase incubated for 48 hrs by flow cytometry
[11] = system: MCF7; assay: Induction of cell cycle arrest in human MCF7 cells assessed as accumulation of cells at G0/G1 phase incubated for 48 hrs by flow cytometry
[12] = system: MDA-MB-231; assay: Induction of cell cycle arrest in human MDA-MB-231 cells assessed as accumulation of cells at G0/G1 phase incubated for 48 hrs by flow cytometry
[13] = system: HepG2; assay: Induction of cell cycle arrest in human HepG2 cells assessed as decrease in accumulation of cells at S phase incubated for 48 hrs by flow cytometry
[14] = system: MDA-MB-231; assay: Induction of apoptosis in human MDA-MB-231 cells at IC50 concentration incubated for 48 hrs by Annexin V-FITC/PI staining based flow cytometry
[15] = system: MDA-MB-231; assay: Induction of necrosis in human MDA-MB-231 cells at IC50 concentration incubated for 48 hrs by Annexin V-FITC/PI staining based flow cytometry
[16] = system: LoVo; assay: Induction of cell cycle arrest in human LoVo cells assessed as accumulation of cells at S phase incubated for 48 hrs by flow cytometry
[17] = system: MDA-MB-231; assay: Induction of cell cycle arrest in human MDA-MB-231 cells assessed as accumulation of cells at S phase incubated for 48 hrs by flow cytometry
[18] = system: LoVo; assay: Induction of cell cycle arrest in human LoVo cells assessed as decrease in accumulation of cells at G2/M phase incubated for 48 hrs by flow cytometry
[19] = system: MDA-MB-231; assay: Induction of cell cycle arrest in human MDA-MB-231 cells assessed as decrease in accumulation of cells at G2/M phase incubated for 48 hrs by flow cytometry
[20] = system: PC-3; assay: Induction of apoptosis in human PC-3 cells at IC50 concentration incubated for 48 hrs by Annexin V-FITC/PI staining based flow cytometry
[21] = system: DU-145; assay: Induction of apoptosis in human DU-145 cells at IC50 concentration incubated for 48 hrs by Annexin V-FITC/PI staining based flow cytometry
[22] = system: PC-3; assay: Induction of necrosis in human PC-3 cells at IC50 concentration incubated for 48 hrs by Annexin V-FITC/PI staining based flow cytometry
[23] = system: DU-145; assay: Induction of necrosis in human DU-145 cells at IC50 concentration incubated for 48 hrs by Annexin V-FITC/PI staining based flow cytometry
[24] = system: PC-3; assay: Induction of cell cycle arrest in human PC-3 cells assessed as accumulation of cells at S phase incubated for 48 hrs by flow cytometry
[25] = system: DU-145; assay: Induction of cell cycle arrest in human DU-145 cells assessed as accumulation of cells at S phase incubated for 48 hrs by flow cytometry
[26] = system: DU-145; assay: Induction of cell cycle arrest in human DU-145 cells assessed as accumulation of cells at G2/M phase incubated for 48 hrs by flow cytometry
[27] = system: Hep 3B2; assay: Induction of early apoptosis in human Hep3B cells at IC50 concentration incubated for 48 hrs by Annexin V-FITC/PI staining based flow cytometry
[28] = system: Hep 3B2; assay: Induction of necrosis in human Hep3B cells at IC50 concentration incubated for 48 hrs by Annexin V-FITC/PI staining based flow cytometry
[29] = system: Hep 3B2; assay: Induction of cell cycle arrest in human Hep3B cells assessed as increase in accumulation of cells at G2/M phase incubated for 48 hrs by flow cytometry
[30] = system: Hep 3B2; assay: Induction of cell cycle arrest in human Hep3B cells assessed as decrease in accumulation of cells at S phase incubated for 48 hrs by flow cytometry
[31] = system: Hep 3B2; assay: Induction of cell cycle arrest in human Hep3B cells assessed as decrease in accumulation of cells at G0/G1 phase incubated for 48 hrs by flow cytometry

Measured: Activity

COc1ccc([C@H]2c3c(/C=C/c4ccc(O)cc4)cc(OC)c(C)c3O[C@@H]3Oc4cc(O)cc(O)c4C(=O)[C@@H]32)cc1
active: [1] | [2] | [3] | [4] | [5] | [6] | [7] | [8] | [9] | [10] | [11] | [12] | [13]

COc1cc(O)cc(/C=C/c2ccc(O)cc2)c1
active: [3] | [14] | [6] | [15] | [16] | [17] | [18] | [19]

COc1cc(/C=C/c2ccc(O)cc2)cc(O)c1C
active: [3] | [20] | [21] | [6] | [22] | [23] | [16] | [24] | [25] | [26]

O=C1/C(=C/c2ccc(O)cc2)COc2cc(O)cc(O)c21
active: [27] | [28] | [29] | [30] | [31]

— ChEMBL document CHEMBL6153091, “Cytotoxic Stilbenoids, Hetero- and Homodimers of Homoisoflavonoids from Prospero autumnale” (J Nat Prod, 2025)
